Where two headings read alike, the source gives them in different places.

The results in this text go back to patent US20250281393A1, “BODY CAVITY GEL” (CS MEDICA A/S, priority 2021, published 2025).

The test system of the test is pathogens, such as virus, e.g. cold and/or flu. As to conditions: in vivo.

With `C=C(C)[C@@H]1CCC(C)=C[C@H]1c1c(O)cc(CCCCC)cc1O` [type A CBD, Cannabidiol], the “Activity (potency) in protection against pathogens, compared with type B CBD” value was “significantly more active”. In addition, the “Activity (potency) in protection against pathogens, compared with type B CBD” value (listed as crystal structure A) was “significantly more potent”.
